# Test system: Mouse cortical neurons
# Test: Gene expression array and pathway analysis, cortical neurons, LMW-DS 0.01 mg/ml 48 h
# Format: cell-based
# Conditions: for number of genes: abolished nutrient effect / number of genes: new effect induced by LMW-DS / number of genes: total / number of genes: enhanced response to nutrients / number of genes: not different from control: cortical neurons
# Method: For each cell line, n=8 × 25 cm^2 culture flasks were set up. Two flasks were harvested for each cell type on the day of treatment (24 hours after seeding). This represents the Day0 time point. From the remaining flasks, three flasks were treated with Control Medium and three were treated with Culture Medium (CM) containing LMW-DS to give a final concentration of 0.01 mg/ml. Cells from the treated flasks were collected after 48 hours. Therefore the collected data represent (a) untreated cells (Day0 Controls and Day2 Controls) and (b) cells treated with LMW-DS (ILB®, Tikomed AB, Viken, Sweden, WO 2016/076780) for 48 hours (Day2 LMW-DS treated).
# Medium was prepared by adding 10 ml B-27 Serum-Free Supplement and 2.5 ml GlutaMAX™-1 Supplement to 500 ml of Neurobasal medium. The medium was pre-warmed to 37° C. Cells from 12 vials were thawed sequentially in a 37° C. water bath for no longer than 2 min and gently transferred into a 15 ml tube. 9 ml of medium was gently added drop-wise to each. The cell suspension was mixed by inverting the tubes carefully twice.
# The cells were centrifuged for 5 minutes at 200 x g. Supernatant was removed (to the last 0.5 ml) and cells were gently re-suspended by trituration. The cells from the 12 vials were mixed and distributed equally into the previously coated 25 cm^2 flasks (n=8). Cells were incubated at 37° C. with 5% CO2 for 24 hours.
# LMW-DS was provided at a stock concentration of 20 mg/ml and was kept in a temperature monitored refrigerator at 4° C. A fresh 100x LMW-DS stock (1.0 mg/ml) was prepared in sterile DMEM-F12. The concentrated drug stock was sterile filtered and added to the respective culture media (19.6 ml CM and 0.4 ml LMW-DS stock solution). The Control was made using 19.6 ml CM and 0.4 ml of DMEM-F12. LMW-DS and CM were added to the respective flasks (5 ml each) to reach the 0.01 mg/ml concentration of LMW-DS in each dish with a total of 10 ml CM each.
# CM was aspirated into a clean and labelled 15 ml Falcon tube. The flasks (without culture medium) were placed into the -80° C. freezer for 30 minutes. The CM in the Falcon tubes was spun at 3000 x g for 5 minutes. Supernatant was removed and the small pellet was re-suspended in 2.5 ml Trizol:Water (4:1) solution at room temperature (RT, ~22° C.).
# Two aliquots of 1 ml lysate were removed from each sample and 200 µl of chloroform was added to each (0.2 ml of chloroform per 1 ml of TRIzol Reagent used during the cell lysis step) and the tube was shaken vigorously. Samples were stored at RT for 2-3 minutes and subsequently centrifuged at 12,000 x g for 15 minutes at 4° C.
# The RNA was precipitated from the aqueous phase by adding an equal amount of 100% ethanol. The precipitated RNA was fixed onto a Spin Cartridge, washed twice and dried. The RNA was eluted in 50 µl warm RNase-Free Water. The amount and quality of the purified RNA was measured by Nanodrop. The RNA was stored at -80° C. before transfer to Source Bioscience for Array analysis.
# The expression data were downloaded into separate files for each cell line. The ‘Background corrected’ expression is the data from the “gProcessedSignal” of the arrays that is the result of the background signal extracted from the actual signal of the relevant probe. This is the most often used variable in array analysis. The background corrected signal was log2 transformed for all samples for statistical analysis. To reduce the false discovery rate in the samples, the signals that were below ‘expression level’ were removed. The ‘below expression’ level was set at 5 for the log2 transformed expression values.
# Based on the expression pattern of the Control probes on each array it was decided to carry out Median Centering for all arrays before analysis to reduce the variability of the results. […]
# [1] = pathway analysis of gene expression
substance,measurement,setting,value
sodium salt of dextran sulfate [LMW-DS],number of differentially expressed genes,D0 control to D2 LMW-DS treated,609
same,number of differentially expressed genes,D0 control to D2 LMW-DS treated (second statement),247
same,number of genes: abolished nutrient effect,no effect,572
same,number of genes: new effect induced by LMW-DS,no effect,19
same,number of genes: total,no effect,591
same,number of genes: abolished nutrient effect,significant downregulation,7
same,number of genes: enhanced response to nutrients,significant downregulation,158
same,number of genes: new effect induced by LMW-DS,significant downregulation,22
same,number of genes: not different from control,significant downregulation,95
same,number of genes: total,significant downregulation,282
same,number of genes: abolished nutrient effect,significant upregulation,33
same,number of genes: enhanced response to nutrients,significant upregulation,43
same,number of genes: new effect induced by LMW-DS,significant upregulation,7
same,number of genes: not different from control,significant upregulation,221
same,number of genes: total,significant upregulation,304
same,number of genes: abolished nutrient effect,total,612
same,number of genes: enhanced response to nutrients,total,612
same,number of genes: new effect induced by LMW-DS,total,48
same,number of genes: not different from control,total,316
same,number of genes: total,total,1177
same,"deleterious effects of oxidative stress (amyloid-β and Lewy body pathology, mitochondrial dysfunction)",[1],prevent and reverse
same,glutamate production,[1],did not alter
